In paper PMC5660078, “Cysteinyl-tRNA synthetase governs cysteine polysulfidation and mitochondrial bioenergetics” (Nature Communications, 2017):

Tests used:
[1] = molecular target: T1, EcCARS (Escherichia coli, UniProt P21888); assay: HPE-IAM labeling LC-ESI-MS/MS of CysSSH formed, Michaelis-Menten fit; type: biochemical; conditions: persulfide synthase reaction; 50 mM HEPES pH 7.5, 25 mM KCl, 15 mM MgCl2, 37 °C, 30 s
T1 construct: gene cysS
T1 sequence (P21888 1-461): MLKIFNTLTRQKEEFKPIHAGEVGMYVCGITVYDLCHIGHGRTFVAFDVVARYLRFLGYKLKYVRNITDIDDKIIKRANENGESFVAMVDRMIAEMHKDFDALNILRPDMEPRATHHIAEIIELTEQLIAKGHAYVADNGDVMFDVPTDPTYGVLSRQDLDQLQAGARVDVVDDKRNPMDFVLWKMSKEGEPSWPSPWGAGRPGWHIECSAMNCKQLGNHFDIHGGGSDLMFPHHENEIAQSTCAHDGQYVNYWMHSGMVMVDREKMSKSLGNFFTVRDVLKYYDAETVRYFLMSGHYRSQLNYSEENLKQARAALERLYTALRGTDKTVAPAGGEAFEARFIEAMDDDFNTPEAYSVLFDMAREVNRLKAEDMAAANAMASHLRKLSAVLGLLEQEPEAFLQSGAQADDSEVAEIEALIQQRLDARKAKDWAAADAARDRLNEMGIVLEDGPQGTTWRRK

[2] = molecular target: T2, human CARS2 (Homo sapiens, UniProt Q9HA77); assay: DNPH derivatization, LC-ESI-MS/MS of bound PLP; type: binding; conditions: 37 °C, 1 h, 0-100 µM PLP
T2 sequence (Q9HA77 1-564): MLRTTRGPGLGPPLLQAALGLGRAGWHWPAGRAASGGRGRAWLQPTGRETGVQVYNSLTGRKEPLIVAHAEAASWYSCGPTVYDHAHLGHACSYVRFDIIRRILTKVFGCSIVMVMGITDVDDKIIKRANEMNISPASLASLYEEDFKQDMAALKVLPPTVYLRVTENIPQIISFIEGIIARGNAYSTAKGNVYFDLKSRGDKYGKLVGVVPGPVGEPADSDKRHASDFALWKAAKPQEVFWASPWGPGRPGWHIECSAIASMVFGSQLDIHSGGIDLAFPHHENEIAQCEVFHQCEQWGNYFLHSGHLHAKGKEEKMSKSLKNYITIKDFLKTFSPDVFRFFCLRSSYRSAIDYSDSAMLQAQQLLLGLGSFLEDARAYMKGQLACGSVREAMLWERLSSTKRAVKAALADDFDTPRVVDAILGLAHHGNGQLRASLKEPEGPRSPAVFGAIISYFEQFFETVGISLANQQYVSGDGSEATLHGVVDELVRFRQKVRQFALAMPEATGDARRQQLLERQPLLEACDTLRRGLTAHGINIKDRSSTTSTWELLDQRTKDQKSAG

[3] = molecular target: T3, mouse CARS1 (Mus musculus, UniProt Q9ER72); assay: HPE-IAM labeling LC-MS/MS of CysSSH and CysSSSH; type: biochemical; conditions: 25 µM L-cysteine, 100 µM PLP, 37 °C, 2 h
T3 sequence (Q9ER72 2-831): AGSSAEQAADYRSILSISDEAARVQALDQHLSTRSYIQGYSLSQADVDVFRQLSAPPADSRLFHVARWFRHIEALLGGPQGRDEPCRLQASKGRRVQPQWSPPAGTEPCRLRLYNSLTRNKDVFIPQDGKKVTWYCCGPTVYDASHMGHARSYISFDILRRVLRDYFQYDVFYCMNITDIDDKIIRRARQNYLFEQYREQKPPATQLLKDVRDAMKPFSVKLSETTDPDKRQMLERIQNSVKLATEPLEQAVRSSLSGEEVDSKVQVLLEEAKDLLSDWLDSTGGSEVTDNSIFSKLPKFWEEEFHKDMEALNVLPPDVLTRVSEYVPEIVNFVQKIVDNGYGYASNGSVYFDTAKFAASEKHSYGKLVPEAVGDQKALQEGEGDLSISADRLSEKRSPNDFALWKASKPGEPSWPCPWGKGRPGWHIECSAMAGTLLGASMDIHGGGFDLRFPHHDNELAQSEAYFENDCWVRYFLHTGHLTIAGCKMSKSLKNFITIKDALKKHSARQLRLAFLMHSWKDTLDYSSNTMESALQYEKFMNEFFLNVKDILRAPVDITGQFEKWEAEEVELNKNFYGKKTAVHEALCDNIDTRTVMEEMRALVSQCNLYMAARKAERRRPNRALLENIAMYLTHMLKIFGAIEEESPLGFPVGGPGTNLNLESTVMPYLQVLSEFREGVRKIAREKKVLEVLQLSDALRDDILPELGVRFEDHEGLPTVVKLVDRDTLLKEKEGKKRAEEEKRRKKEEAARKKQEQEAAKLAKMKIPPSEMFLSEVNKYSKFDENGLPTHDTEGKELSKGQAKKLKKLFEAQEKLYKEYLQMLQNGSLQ

N[C@@H](CS)C(=O)O [L-cysteine]
Km [1]: EcCARS is very efficient in producing CysSSH

Cc1ncc(COP(=O)(O)O)c(C=O)c1O [pyridoxal phosphate]
DNPH derivatization, LC-ESI-MS/MS of bound PLP [2]: Precisely quantitative analysis for PLP bound to human CRAS2 | HPE-IAM labeling LC-MS/MS of CysSSH and CysSSSH [3]: PLP-dependent CysSSH and CysSSSH biosynthesis by mouse CARS1 and human CARS2
